This is an account of results in US20240174696A1, “2,8-DIAZASPIRO[4.5]DECANE COMPOUNDS” (Genentech, Inc., priority 2021, published 2024).

Counter-ions that a name gives are not always drawn.

The target of experiment [1] is Human LATS2 catalytic domain (Homo sapiens (Human), UniProt Q9NRM7). Kind of experiment: LATS2 High ATP HTRF Assay. It counts as biochemical. The settings on record: no asterisk: LATS2 High ATP HTRF Assay, 5000 μM ATP, 0.05 nM LATS2. The procedure: Human LATS2 catalytic domain which contains the amino acids G553-V1088 (accession NP_055387) was purified in-house. The LATS2 catalytic domain was co-purified with Mob1b (accession NP_775739). The LATS2 biochemical HTRF assay was performed using the HTRF KinEASE-STK S1 Kit (Cisbio, Cat #62ST1PEC), following the protocol from the manufacturer. Compounds were dispensed by the Echo Liquid Handler (Labcyte) into a white 384-well plate (PerkinElmer, Cat #6008289). 3 uL of 2×LATS2 enzyme solution was added to the compounds, following by a 10 minute incubation at room temperature. Then, 2×ATP and STK S1 peptide solution was added to initiate the one hour enzyme reaction at room temperature. The final condition of the reaction was 0.2 nM LATS2, 50 μM ATP, 0.5 μM STK S1 peptide in 50 mM HEPES pH7.2, 10 mM MgCl2, 0.1% BGG, 0.005% Brij-35, 1 mM DTT. The reaction was quenched by adding 6 uL of the detection mixture which contained Streptavidin XL665 and STK Antibody-Cryptate (Cisbio), incubate for 1 hour at room temperature. The HTRF (665 nm/620 nm) signal was read on the Envision plater reader (PerkinElmer). The IC50 values were determined by fitting the % inhibition with a nonlinear four-parameter logistical equation. The Ki values were calculated using the Cheng-Prusoff equation for a competitive inhibitor, IC50═Ki (1+S/Km)+M [E] with ATP Km for LATS2=105 μM.
Chain of Human LATS2 catalytic domain (Q9NRM7 553-1088): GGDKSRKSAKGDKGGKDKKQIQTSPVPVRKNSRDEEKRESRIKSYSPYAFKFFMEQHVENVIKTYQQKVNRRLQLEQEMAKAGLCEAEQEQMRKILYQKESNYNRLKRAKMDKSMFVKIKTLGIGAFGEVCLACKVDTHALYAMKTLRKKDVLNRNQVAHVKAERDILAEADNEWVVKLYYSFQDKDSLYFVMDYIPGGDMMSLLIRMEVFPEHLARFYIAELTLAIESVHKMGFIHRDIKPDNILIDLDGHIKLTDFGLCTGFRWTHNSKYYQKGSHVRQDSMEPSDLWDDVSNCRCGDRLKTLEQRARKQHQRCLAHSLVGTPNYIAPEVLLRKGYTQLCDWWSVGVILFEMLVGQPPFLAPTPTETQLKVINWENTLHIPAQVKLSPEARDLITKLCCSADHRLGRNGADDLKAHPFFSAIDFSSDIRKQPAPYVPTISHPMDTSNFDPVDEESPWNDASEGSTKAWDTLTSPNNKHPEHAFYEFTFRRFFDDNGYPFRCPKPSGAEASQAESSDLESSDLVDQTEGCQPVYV
Chain of Human LATS2 catalytic domain (Q7L9L4 whole entry partner, the tested form may be a part): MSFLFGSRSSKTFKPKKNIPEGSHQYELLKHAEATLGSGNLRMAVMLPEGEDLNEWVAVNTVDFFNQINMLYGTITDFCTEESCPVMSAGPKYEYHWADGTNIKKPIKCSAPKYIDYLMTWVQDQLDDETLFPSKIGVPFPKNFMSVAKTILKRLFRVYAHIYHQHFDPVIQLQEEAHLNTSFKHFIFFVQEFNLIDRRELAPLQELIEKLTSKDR
The LATS2 high ATP HTRF assay was performed using the same protocol as the Standard LATS2 HTRF assay. The final condition of the reaction was 0.05 nM LATS2, 5000 μM ATP, 0.5 μM STK S1 peptide in 50 mM HEPES pH7.2, 10 mM MgCl2, 0.1% BGG, 0.005% Brij-35, 1 mM DTT and the 2 hours enzyme reaction at room temperature.
(In TR-FRET formats the signal depends on donor and acceptor labels being close together.)

The subject of experiment [2] is TAZ nuclear translocation in SW1990 cells. The experiment is described as follows: TAZ Nuclear Translocation Assay. It counts as cell-based. The note with it: Homo sapiens, 4 hours. The method, then:
The SW1990 cells (ATCC, CRL2172) were seeded at 5000 cells/well by adding 30 μL/well of cells in RPMI1640, 10% FBS, 2 mM glutamine culture media to a 384-well plate (Greiner 781091). The cells were incubated overnight at 37° C. Next day, test compounds were directly added to the cells using the Echo Liquid Handler (Labcyte), incubate at 37° C. for 4 hours. The cells were fixed with 4% paraformaldehyde and incubate for 20 minutes at room temperature. After washing three times with 100 μL PBS, 0.5% Triton X-100 was added to permeabilize the cells, incubate at room temperature for 5 minutes, following by washing the cells three times with PBS. 3% BSA was added to the cells, incubate for one hour at room temperature, following by washing three times with PBS. 50 μL of 1:750 diluted rabbit Anti-TAZ (Cell signaling D316D) in 3% BSA was added to the cells, incubate at 4° C. overnight. Next day, after washing the cells three times with PBS, 50 μL of 1:1250 diluted donkey anti-Rabbit, Alexa Fluor 488 (Invitrogen A21206) and 1:6250 diluted Hoechst 33342 (Molecular Probes H-21492) in 3% BSA was added to the cells, incubate at room temperature for one hour. The cells were washed three times with PBS, then image with the CellInsight CX7 High-Content Imager. The ratio of nuclear mean fluorescence intensity and cytoplasmic ring region mean fluorescence intensity was calculated. The % inhibition was normalized using DMSO as 0% inhibition and an inhibitor control as 100% inhibition. The EC50 values were calculated by fitting the % inhibition with a nonlinear four-parameter logistical equation.

In turn, `c1cc(-c2nc(N3CCC4(CC3)CCN(C3CCOC3)C4)c3ccncc3n2)ccn1` (racemic) [Compound 111, 2-(pyridin-4-yl)-4-(2-(tetrahydrofuran-3-yl)-2,8-diazaspiro[4.5]decan-8-yl)pyrido[3,4-d]pyrimidine] had a Ki in experiment [1] of 0.14 nM. This compound gave a concentration giving a half-maximal response (EC50) in experiment [2] of 630 nM.

The compound `CN1CC2(CCN(c3nc(-c4ccncc4)nc4cnccc34)CC2)CC1CO` (racemic) [Example 212, (2-methyl-8-(2-(pyridin-4-yl)pyrido[3,4-d]pyrimidin-4-yl)-2,8-diazaspiro[4.5]decan-3-yl)methanol] yielded a Ki in experiment [1] of 0.41 nM. Moreover, the EC50 in experiment [2] is 2500 nM.

On to `FCC1CC2(CCN(c3nc(-c4ccncc4)nc4cnccc34)CC2)CN1` (racemic) [Example 216, 4-(3-(fluoromethyl)-2,8-diazaspiro[4.5]decan-8-yl)-2-(pyridin-4-yl)pyrido[3,4-d]pyrimidine], for which the affinity in experiment [1] corresponds to a Ki of 0.13 nM. This compound registered an EC50 in experiment [2] of 490 nM.

On to `COCC1CC2(CCN(c3nc(-c4ccncc4)nc4cnccc34)CC2)CN1C` (racemic) [Example 217, 4-(3-(methoxymethyl)-2-methyl-2,8-diazaspiro[4.5]decan-8-yl)-2-(pyridin-4-yl)pyrido[3,4-d]pyrimidine], for which, in experiment [1], the inhibition constant (Ki) is 0.35 nM. Moreover, in experiment [2], the EC50 is 780 nM.

With `c1cc(-c2nc(N3CCC4(CC3)CC3COCCN3C4)c3ccncc3n2)ccn1` (racemic) [Example 218, 1-(2-(pyridin-4-yl)pyrido[3,4-d]pyrimidin-4-yl)hexahydrospiro[piperidine-4,7′-pyrrolo[2,1-c][1,4]oxazine]], in experiment [1], the inhibitory constant (Ki) came out at 4.3 nM. Besides, in experiment [2], the EC50 is 6800 nM.

As for `C[C@H](CO)N1CCC2(CCN(c3nc(-c4ccncc4)nc4cnccc34)CC2)C1` (single isomer, unassigned) [Compound 103], in experiment [1], affinity was put at a Ki of 0.58 nM. In addition, in experiment [2], the EC50 stood at 740 nM.

Regarding `C[C@@H](CO)N1CCC2(CCN(c3nc(-c4ccncc4)nc4cnccc34)CC2)C1` (single isomer, unassigned) [Compound 104], the affinity in experiment [1] corresponds to a Ki of 0.53 nM. Also, in experiment [2], the EC50 is 450 nM.

In experiment [1], `Cc1n[nH]cc1-c1nc(N2CCC3(CCN(C[C@H](C)O)C3)CC2)c2ccncc2n1` (single isomer, unassigned) [Compound 144] gave a Ki of 0.086 nM. This compound showed an EC50 in experiment [2] of 690 nM.

In turn, `Cc1n[nH]cc1-c1nc(N2CCC3(CCN(C[C@@H](C)O)C3)CC2)c2ccncc2n1` (single isomer, unassigned) [Compound 145] showed a Ki in experiment [1] of 0.039 nM. This compound had an EC50 in experiment [2] of 940 nM.

For `O[C@H]1CC[C@@H](N2CCC3(CCN(c4nc(-c5ccncc5)nc5cnccc45)CC3)C2)C1` (single isomer, unassigned) [Compound 169], the affinity in experiment [1] corresponds to a Ki of 0.45 nM. For the same compound, a half-maximal effect in experiment [2] (EC50) was put at 570 nM.

As to `O[C@@H]1CC[C@H](N2CCC3(CCN(c4nc(-c5ccncc5)nc5cnccc45)CC3)C2)C1` (single isomer, unassigned) [Compound 170], the inhibitory constant (Ki) in experiment [1] was 0.29 nM. This compound returned a half-maximal effective concentration (EC50) in experiment [2] of 380 nM.

Take `O[C@@H]1COC[C@H]1N1CCC2(CCN(c3nc(-c4ccncc4)nc4cnccc34)CC2)C1` (single isomer, unassigned) [Compound 176]: the Ki in experiment [1] stood at 0.93 nM. This compound returned an EC50 in experiment [2] of 1790 nM.

In experiment [1], `O[C@H]1COC[C@@H]1N1CCC2(CCN(c3nc(-c4ccncc4)nc4cnccc34)CC2)C1` (single isomer, unassigned) [Compound 177] yielded a Ki of 0.39 nM. Besides, the EC50 in experiment [2] turned out to be 2500 nM.

In experiment [1], `O[C@@H]1CC[C@H]1N1CCC2(CCN(c3nc(-c4ccncc4)nc4cnccc34)CC2)C1` (single isomer, unassigned) [Compound 179] showed an inhibition constant (Ki) of 0.1 nM. In addition, the EC50 in experiment [2] was 740 nM.

`O[C@@H]1CC[C@@H]1N1CCC2(CCN(c3nc(-c4ccncc4)nc4cnccc34)CC2)C1` (single isomer, unassigned) [Compound 180] yielded an inhibitory constant (Ki) in experiment [1] of 1.38 nM. Besides, the midpoint of the response in experiment [2], the EC50, lay at 1300 nM.

`O[C@H]1CC[C@H]1N1CCC2(CCN(c3nc(-c4ccncc4)nc4cnccc34)CC2)C1` (single isomer, unassigned) [Compound 181] showed an inhibitory constant (Ki) in experiment [1] of 1.87 nM. In experiment [2], this compound registered a 50% effective concentration (EC50) of 1900 nM.

`Cc1n[nH]cc1-c1nc(N2CCC3(CC2)CCN([C@@H]2CCC[C@H]2O)C3)c2ccncc2n1` (single isomer, unassigned) [Compound 184] registered a Ki in experiment [1] of 0.037 nM. This compound yielded a concentration giving a half-maximal response (EC50) in experiment [2] of 1400 nM.

In turn, `Cc1[nH]ncc1-c1nc(N2CCC3(CC2)CCN([C@H]2CCC[C@@H]2O)C3)c2ccncc2n1` (single isomer, unassigned) [Compound 185] returned an inhibitory constant (Ki) in experiment [1] of 0.047 nM. The same compound showed a 50% effective concentration (EC50) in experiment [2] of 860 nM.

As to `COC[C@H]1CC2(CCN(c3nc(-c4ccncc4)nc4cnccc34)CC2)CN1` (single isomer, unassigned) [Example 221], the affinity in experiment [1], expressed as Ki, was 0.32 nM. The compound also came in with an EC50 in experiment [2] of 230 nM.

`COC[C@@H]1CC2(CCN(c3nc(-c4ccncc4)nc4cnccc34)CC2)CN1` (single isomer, unassigned) [Example 222] registered a Ki in experiment [1] of 0.1 nM. The compound also had an EC50 in experiment [2] of 340 nM.

The compound `Cc1[nH]ncc1-c1nc(N2CCC3(CC2)CCN([C@@H]2CC[C@H]2O)C3)c2ccncc2n1` (single isomer, unassigned) [Example 228] displayed an inhibitory constant (Ki) in experiment [1] of 0.067 nM. For the same compound, in experiment [2], the EC50 worked out at 2700 nM.

Take `Cc1[nH]ncc1-c1nc(N2CCC3(CC2)CCN([C@H]2CC[C@@H]2O)C3)c2ccncc2n1` (single isomer, unassigned) [Example 229]: the affinity in experiment [1] corresponds to a Ki of 0.063 nM. Moreover, the EC50 in experiment [2] was 2100 nM.

`Cc1[nH]ncc1-c1nc(N2CCC3(CC2)CCN([C@@H]2CC[C@@H]2O)C3)c2ccncc2n1` (single isomer, unassigned) [Example 230]: in experiment [1], the inhibitory constant (Ki) worked out at 0.043 nM. The same compound displayed an EC50 in experiment [2] of 1000 nM.

In experiment [1], `Cc1[nH]ncc1-c1nc(N2CCC3(CC2)CCN([C@H]2CC[C@H]2O)C3)c2ccncc2n1` (single isomer, unassigned) [Example 231] had an inhibition constant Ki of 0.11 nM. The EC50 in experiment [2] is 900 nM.

In experiment [2], `COc1cncc2nc(-c3ccncc3)nc(N3CCC4(CCN(C)C4)CC3)c12` [Compound 252, 5-Methoxy-4-(2-methyl-2,8-diazaspiro[4.5]decan-8-yl)-2-(pyridin-4-yl)pyrido[3,4-d]pyrimidine formate] yielded a 50% effective concentration (EC50) of 130 nM.

For the compound `Cc1nn(C)cc1-c1nc(N2CCC3(CC2)CCN(C2CCCC2)C3)c2ccncc2n1` [Example 208, 4-(2-cyclopentyl-2,8-diazaspiro[4.5]decan-8-yl)-2-(1,3-dimethyl-1H-pyrazol-4-yl)pyrido[3,4-d]pyrimidine], in experiment [1], affinity was put at a Ki of 60 nM.

In experiment [1], `CN1CCC2(CCN(c3nc(-c4ccncc4)nc4cnc(C(F)(F)F)cc34)CC2)C1` [Example 209, 4-(2-methyl-2,8-diazaspiro[4.5]decan-8-yl)-2-(pyridin-4-yl)-6-(trifluoromethyl)pyrido[3,4-d]pyrimidine] gave a Ki of 45 nM.

`Cc1n[nH]cc1-c1nc(N2CCC3(CCN(CCS(=O)(=O)N(C)C)C3)CC2)c2ccncc2n1` [Example 210, N,N-dimethyl-2-(8-(2-(3-methyl-1H-pyrazol-4-yl)pyrido[3,4-d]pyrimidin-4-yl)-2,8-diazaspiro[4.5]decan-2-yl)ethanesulfonamide]: the Ki in experiment [1] was 0.25 nM.

Compound `Cc1n[nH]cc1-c1nc(N2CCC3(CCNC3)CC2)c2ccnc(O)c2n1` [Example 237, 2-(3-methyl-1H-pyrazol-4-yl)-4-(2,8-diazaspiro[4.5]decan-8-yl)pyrido[3,4-d]pyrimidin-8-ol] yielded a Ki in experiment [1] of 19 nM.

As usually defined, the Ki is the dissociation constant of the complex between target and ligand, obtained from inhibition or displacement. As usually defined, the EC50 is the concentration at which the effect is half-maximal.
